pIC50: −log10 of the molar value.
Test system: A498 complex spheroids with HUVEC/MSC, growth
Test: Anticancer human tumor A498 cell line growth inhibition [AhR];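 further: seven day exposure starting three days after spheroid seeding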;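 on viability, T/C: luminescence signal used as a surrogate for viable cells; luminescence viability scaled so 100% equals DMSO vehicle wells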
Settings: for pIC50: curve of first compound; for viability, T/C: stronger effect = lower value
Summary of the method: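 Spheroids combined tumor cells with HUVEC endothelial cells and human MSCs as stroma. AhR antagonists were paired with standard or investigational drugs, each dosed in half-log steps down from near clinical Cmax, or from 10 microM where Cmax was unknown.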

[1] = second compound 0.1 µM, first compound 0.0316 µM
[2] = second compound 0.1 µM, first compound 0.1 µM
[3] = second compound 0.1 µM, first compound 0.316 µM
[4] = second compound 0.1 µM, first compound 1 µM
[5] = second compound 0.1 µM, first compound 3.16 µM
[6] = second compound 0.1 µM, first compound 10 µM
[7] = second compound 0.316 µM, first compound 0.0316 µM
[8] = second compound 0.316 µM, first compound 0.1 µM
[9] = second compound 0.316 µM, first compound 0.316 µM
[10] = second compound 0.316 µM, first compound 1 µM
[11] = second compound 0.316 µM, first compound 3.16 µM
[12] = second compound 0.316 µM, first compound 10 µM
[13] = second compound 1 µM, first compound 0.0316 µM
[14] = second compound 1 µM, first compound 0.1 µM
[15] = second compound 1 µM, first compound 0.316 µM
[16] = second compound 1 µM, first compound 1 µM
[17] = second compound 1 µM, first compound 3.16 µM
[18] = second compound 1 µM, first compound 10 µM
[19] = second compound 3.16 µM, first compound 0.0316 µM
[20] = second compound 3.16 µM, first compound 0.1 µM
[21] = second compound 3.16 µM, first compound 0.316 µM
[22] = second compound 3.16 µM, first compound 1 µM
[23] = second compound 3.16 µM, first compound 3.16 µM
[24] = second compound 3.16 µM, first compound 10 µM
[25] = second compound 10 µM, first compound 0.0316 µM
[26] = second compound 10 µM, first compound 0.1 µM
[27] = second compound 10 µM, first compound 0.316 µM
[28] = second compound 10 µM, first compound 1 µM
[29] = second compound 10 µM, first compound 3.16 µM
[30] = second compound 10 µM, first compound 10 µM

In the case of `COc1cc(C2c3cc4c(cc3C(OC3OC5COC(C)OC5C(O)C3O)C3COC(=O)C23)OCO4)cc(OC)c1O` (stereo not given) + Cc1ccccc1N=Nc1ccc(NC(=O)c2ccnn2C)c(C)c1, the pIC50 (second compound 0.1 µM) was under 5.00, the pIC50 (second compound 0.316 µM) was under 5.00 and the pIC50 (second compound 1 µM) was under 5.00. It also gave a pIC50 (second compound 3.16 µM) of 5.12, a pIC50 (second compound 10 µM) of 5.06 and a viability, T/C [1] of 73.9%. For the same compound, the viability, T/C [2] was 68%, the viability, T/C [3] was 63.5% and the viability, T/C [4] was 64.6%. It also gave a viability, T/C [5] of 61.3%, a viability, T/C [6] of 49.2% and a viability, T/C [7] of 85%. For the same compound, the viability, T/C [8] was 76.9%, the viability, T/C [9] was 77.4% and the viability, T/C [10] was 66.7%. It also gave a viability, T/C [11] of 59.5%, a viability, T/C [12] of 53.2% and a viability, T/C [13] of 75.3%. For the same compound, the viability, T/C [14] was 71.1%, the viability, T/C [15] was 67.5% and the viability, T/C [16] was 63.4%. The viability, T/C [17] was 52.9%, the viability, T/C [18] was 52.7% and the viability, T/C [19] was 72.9%. It also gave a viability, T/C [20] of 68.7%, a viability, T/C [21] of 72.6% and a viability, T/C [22] of 62.8%. For the same compound, the viability, T/C [23] was 55.4%, the viability, T/C [24] was 48.6% and the viability, T/C [25] was 74.8%. For the same compound, the viability, T/C [26] was 73.1%, the viability, T/C [27] was 77.2% and the viability, T/C [28] was 66.7%. It also gave a viability, T/C [29] of 61.5% and a viability, T/C [30] of 48.5%.
Work on `Nc1ccn(C2OC(CO)C(O)C2(F)F)c(=O)n1` (stereo not given) + Cc1ccccc1N=Nc1ccc(NC(=O)c2ccnn2C)c(C)c1 yielded a pIC50 (second compound 0.1 µM) of over 7.50, a pIC50 (second compound 0.316 µM) of over 7.50 and a pIC50 (second compound 1 µM) of over 7.50. For the same compound, the pIC50 (second compound 3.16 µM) was over 7.50, the pIC50 (second compound 10 µM) was over 7.50 and the viability, T/C [1] was 33.3%. For the same compound, the viability, T/C [2] was 36%, the viability, T/C [3] was 39.9% and the viability, T/C [4] was 47.9%. It also gave a viability, T/C [5] of 46.9%, a viability, T/C [6] of 43.5% and a viability, T/C [7] of 30.9%. For the same compound, the viability, T/C [8] was 33.1%, the viability, T/C [9] was 43.9% and the viability, T/C [10] was 44.8%. It also gave a viability, T/C [11] of 50.5%, a viability, T/C [12] of 38% and a viability, T/C [13] of 35.5%. The viability, T/C [14] was 33.2%, the viability, T/C [15] was 44% and the viability, T/C [16] was 50.7%. It also gave a viability, T/C [17] of 42.7%, a viability, T/C [18] of 38.2% and a viability, T/C [19] of 37%. The viability, T/C [20] was 37.5%, the viability, T/C [21] was 46.5% and the viability, T/C [22] was 41.8%. It also gave a viability, T/C [23] of 44.6%, a viability, T/C [24] of 38.8% and a viability, T/C [25] of 37.4%. The viability, T/C [26] was 40.8%, the viability, T/C [27] was 46.6% and the viability, T/C [28] was 45.7%. The viability, T/C [29] was 44.7% and the viability, T/C [30] was 40.9%.
In the case of `Nc1ncn(C2CC(O)C(CO)O2)c(=O)n1` (stereo not given) + Cc1ccccc1N=Nc1ccc(NC(=O)c2ccnn2C)c(C)c1, the pIC50 (second compound 0.1 µM) was under 6.00, the pIC50 (second compound 0.316 µM) was under 6.00 and the pIC50 (second compound 1 µM) was under 6.00. The pIC50 (second compound 3.16 µM) was under 6.00, the pIC50 (second compound 10 µM) was under 6.00 and the viability, T/C (second compound 0.1 µM, first compound 0.00316 µM) was 88.8%. The viability, T/C (second compound 0.1 µM, first compound 0.01 µM) was 91.7%, the viability, T/C [1] was 88.8% and the viability, T/C [2] was 93.6%. It also gave a viability, T/C [3] of 86.2%, a viability, T/C [4] of 77.1% and a viability, T/C (second compound 0.316 µM, first compound 0.00316 µM) of 97%. The viability, T/C (second compound 0.316 µM, first compound 0.01 µM) was 97.5%, the viability, T/C [7] was 97.4% and the viability, T/C [8] was 84%. For the same compound, the viability, T/C [9] was 78.5%, the viability, T/C [10] was 76.1% and the viability, T/C (second compound 1 µM, first compound 0.00316 µM) was 81.2%. The viability, T/C (second compound 1 µM, first compound 0.01 µM) was 87.3%, the viability, T/C [13] was 84.4% and the viability, T/C [14] was 74.9%. The viability, T/C [15] was 74.6%, the viability, T/C [16] was 70.6% and the viability, T/C (second compound 3.16 µM, first compound 0.00316 µM) was 84.9%. For the same compound, the viability, T/C (second compound 3.16 µM, first compound 0.01 µM) was 87.2%, the viability, T/C [19] was 85.8% and the viability, T/C [20] was 73.9%. It also gave a viability, T/C [21] of 80%, a viability, T/C [22] of 64% and a viability, T/C (second compound 10 µM, first compound 0.00316 µM) of 90.7%. For the same compound, the viability, T/C (second compound 10 µM, first compound 0.01 µM) was 86.7%, the viability, T/C [25] was 76.9% and the viability, T/C [26] was 85.3%. For the same compound, the viability, T/C [27] was 74.8% and the viability, T/C [28] was 68%.

Source: PubChem BioAssay AID1919007 (Molecular Pharmacology Branch, DTP, NCI, 2023)
